Patent US20180296456A1, “Decapeptide-12 Modulation of Sirtuin Gene Expression in Epidermal Keratinocyte Progenitors” (Escape Therapeutics, Inc., priority 2017, published 2018)
Several values for one entry are separate records, joined by “and”; a condition that tells them apart may be missing. Equal values may be shown once. Ends that are not written are not given here.

Experiments:
Assay type in all cases: cell-based
[1] = tested on: SIRT1; test: SIRT1 transcription, semi-quantitative RT-PCR in human epidermal progenitors; details: 72 h
Description: (§1) Human neonatal epidermal progenitors (Thermo Fisher Scientific, NY) were seeded in 6-well plates at a density of 2×10^5 cells/well. Each well received 2 ml of Epilife media containing 60 μM calcium chloride (Thermo Fisher Scientific, NY). Plates were incubated in a humidified chamber at 37 degrees Celsius and 5 percent CO2. Twenty-four hours later, cells were treated with various concentrations of oxyresveratrol or decapeptide-12 dissolved in PBS containing 5 percent DMSO. Control wells received vehicle only (5 percent DMSO and PBS). Final concentration of DMSO in each well was 0.05 percent.
(§2) After a 72 hour incubation period, cells were trypsinized and total RNA extracted, using RNeasy kit (Qiagen, Valencia, Calif.) according to the manufacturer's protocol.
(§3) RNA concentration was determined using nanodrop (Thermo fisher scientific, NY). Two μg of total RNA were used to synthesize cDNA using oligo dT primers and TaqMan reverse transcription reagents (Thermo fisher scientific, NY). The reaction was carried out in DNA Engine Peltier Thermal Cycler (Bio-Rad, Hercules, Calif.). The annealing temperature was 25 degrees Celsius for 10 minutes, followed by first strand synthesis at 48 degrees Celsius for 1 hour, and heat inactivation at 95 degrees Celsius for 5 minutes.
(§4) The SIRT1-7 primers (table 1) were designed using Primer3. The semi-quantitative PCR reactions were performed on a DNA Engine Peltier Thermo Cycler (Bio-Rad, Hercules, Calif.). PCR was carried under the following conditions: denaturation at 94 degrees Celsius for 2 minutes and primer extension at 54 degrees Celsius for 30 seconds in 34 cycles for SIRT 1-7 and the housekeeping gene 18S.
(§5) Samples were run and resolved on a 1.5 percent agarose gel containing 0.5 μg/ml of ethidium bromide and imaged using the FluorChem HD2 Imaging System (Protein simple, San Jose, Calif.). Densitometry analysis was carried out using the AlphaEase FC software (Protein simple, San Jose, Calif.). Intensity ratios were calculated as the intensity value for each gene divided by the intensity value of the internal control gene 18S.
(§6) The effect of the decapeptides P4, P4A, P4B, and P4C upon the transcription levels of sirtuins 1-7 was evaluated. Table 4 summarizes transcription levels for all four decapeptides with the corresponding genes, at tested concentrations of: 10, 30, 50, 100, and 300 (all in μM).

[2] = Trypan blue cell viability, 7 days, melanoblasts; details: human, relative to control, read-out: melanoblast viability after 7 days
Description: (§7) The effect of each of the decapeptides upon cell viability was also tested. In particular, cells were incubated with the decapeptide at various concentrations and then counted for viability relative to the control (untreated cells) using trypan blue. Cytotoxicity was measured according to the following formula:
(§8) [1−(# of cells in control−# of live cells in test sample)/# of cells in control]×100 percent.

[3] = in vitro; details: human, human epidermal progenitors
Description: Proliferation rates were determined using a TACS® MTT Cell Proliferation Kit (R&D systems, Minneapolis, Minn.). Cells were seeded at 2.5×10^4/well in 96-well plates in a humidified atmosphere with 5 percent CO2 at 37 degrees Celsius. Twenty-four hours later, decapeptide-12 or oxyresveratrol were added to the corresponding wells at varying concentrations (0, 3, 10, 30, 100, 300, and 1000 μM), and cultures were then incubated for 72 hours. The remainder of the procedure was performed following the manufacturer's protocol.
Proliferation rates for three human cell lines (epidermal progenitors, melanoblasts, and fibroblasts) were determined using a TACS® MTT Cell Proliferation Kit. Cells were seeded at 2.5×10^4/well in 96-well plates in a humidified atmosphere with 5 percent CO2 at 37 degrees Celsius. Twenty-four hours later, the decapeptides were added to the corresponding wells at varying concentrations and incubated for 72 hours. The remainder of the procedure was performed following the manufacturer's protocol.

[4] = tested on: SIRT5; test: SIRT5 transcription, semi-quantitative RT-PCR in human epidermal progenitors; details: 72 h
Description: as §1, §2, §3, §4, §5, §6

[5] = Trypan blue cell viability, 7 days, fibroblasts; details: human, relative to control, read-out: fibroblast viability after 7 days
Description: as §7, §8

[6] = tested on: SIRT4; test: SIRT4 transcription, semi-quantitative RT-PCR in human epidermal progenitors; details: 3 μM, 72 h
Description: as §1, §2, §3, §4, §5, §6

What does the source list for YRSRKYSSWY [decapeptide-12, YRSRKYSSWY]?
SIRT1 transcription increase relative to control ([1]; 3 μM): 3 ± 1%; SIRT1 transcription increase relative to control ([1]; 10 μM): 12.2 ± 3.1%^; SIRT1 transcription increase relative to control ([1]; 10 μM, listed as P4): 12 ± 3%; SIRT1 transcription increase relative to control ([1]; 30 μM): 34 ± 6.7%; SIRT1 transcription increase relative to control ([1]; 30 μM, listed as P4): 34 ± 7%; SIRT1 transcription increase relative to control ([1]; 50 μM): 79.2 ± 12%; SIRT1 transcription increase relative to control ([1]; 50 μM, listed as P4): 79 ± 12%; SIRT1 transcription increase relative to control ([1]; 100 μM): 141±11% and 141%; SIRT1 transcription increase relative to control ([1]; 100 μM, listed as Deca): 141.2 ± 11%; SIRT1 transcription increase relative to control ([1]; 100 μM, listed as P4): 141 ± 11%; SIRT1 transcription increase relative to control ([1]; 300 μM): 188 ± 12%^; SIRT1 transcription increase relative to control ([1]; 300 μM, listed as P4): 188 ± 12%; SIRT1 transcription increase relative to control ([1]; 500 μM): 205 ± 13.3%; SIRT1 transcription increase relative to control ([1]; 1000 μM): 213%; SIRT1 transcription increase relative to control ([1]; 1000 μM, listed as Deca): 213 ± 13.4%; viability at 168 h, 3 µM ([2]; 3 μM): 100%; viability at 168 h, 10 µM ([2]; 10 μM): 99 ± 1%; viability at 168 h, 30 µM ([2]; 30 μM): 98.3 ± 1%; viability at 168 h, 50 µM ([2]; 50 μM): 98 ± 1%; viability at 168 h, 100 µM ([2]; 100 μM): 97.3 ± 1%; viability at 168 h, 300 µM ([2]; 300 μM): 95.2 ± 2%; viability at 168 h, 500 µM ([2]; 500 μM): 94.6 ± 2%; viability at 168 h, 1000 µM ([2]; 1000 μM): 94 ± 2%; viability at 72 h, 3 µM [3]: 100%; viability at 72 h, 10 µM [3]: 99 ± 1%; viability at 72 h, 30 µM [3]: 98 ± 1%; viability at 72 h, 50 µM [3]: 97 ± 1%; viability at 72 h, 100 µM [3]: 97 ± 1%; viability at 72 h, 300 µM [3]: 96 ± 1%; viability at 72 h, 500 µM [3]: 96 ± 2%; viability at 72 h, 1000 µM [3]: 94 ± 2%; SIRT5 transcription increase relative to control ([4]; 3 μM): 3 ± 1%; SIRT5 transcription increase relative to control ([4]; 10 μM): 5.2 ± 3%^; SIRT5 transcription increase relative to control ([4]; 10 μM, listed as P4): 5 ± 3%; SIRT5 transcription increase relative to control ([4]; 30 μM): 21 ± 6.7%; SIRT5 transcription increase relative to control ([4]; 30 μM, listed as P4): 21 ± 7%; SIRT5 transcription increase relative to control ([4]; 50 μM): 33.1 ± 6.1%; SIRT5 transcription increase relative to control ([4]; 50 μM, listed as P4): 33 ± 6%; SIRT5 transcription increase relative to control ([4]; 100 μM, listed as Deca): 46 ± 7.3%; SIRT5 transcription increase relative to control ([4]; 100 μM, listed as P4): 46 ± 7%; SIRT5 transcription increase relative to control ([4]; 300 μM): 67 ± 9.3%; SIRT5 transcription increase relative to control ([4]; 300 μM, listed as P4): 67 ± 9%; SIRT5 transcription increase relative to control ([4]; 500 μM): 87.4 ± 15.1%; SIRT5 transcription increase relative to control ([4]; 1000 μM): 92.1 ± 16.8%; viability at 168 h, 3 µM ([5]; 3 μM): 100%; viability at 168 h, 10 µM ([5]; 10 μM): 98.6 ± 1%; viability at 168 h, 30 µM ([5]; 30 μM): 98.2 ± 1%; viability at 168 h, 50 µM ([5]; 50 μM): 97.8 ± 1%; viability at 168 h, 100 µM ([5]; 100 μM): 97.2 ± 1%; viability at 168 h, 300 µM ([5]; 300 μM): 95.6 ± 2%; viability at 168 h, 500 µM ([5]; 500 μM): 94.5 ± 2%; viability at 168 h, 1000 µM ([5]; 1000 μM): 93.8 ± 1%; SIRT4 transcription increase relative to control [6]: 3 ± 1%
